# Measurements: patent publication US8276663B2, “Methods for reducing biological load in subterranean formations” (Halliburton Energy Services Inc., priority 2010, dated 2012)
# How the values were obtained:
# Type in all cases: physicochemical
# [1] = Compatibility of guar-based fluid (DELTA 140) and TTPC, FIG. 4
# Text: The starting viscosity of each of the tested fluids, was as follows: 824.2 for the control, 263.7 for the fluid containing 125 ppm TTPC, 567.3 for the fluid containing 250 ppm TTPC, and 721.6 for the fluid containing 375 pp, TTPC.
# [2] = Compatibility of CMHPG-based fluid (pHaser Frac) and TTPC, FIG. 6
# Text: The starting viscosity of each of the tested fluids, was as follows: 719.1 for the control, 1182.63 for the fluid containing 30 ppm TTPC, 1067.5 for the fluid containing 60 ppm TTPC, and 1015.8 for the fluid containing 125 pp, TTPC.
# [3] = Compatibility of HPG-based fluid (HYBOR H) and TTPC, FIG. 2
# Text: Not shown in FIG. 2 is the starting viscosity of each of the tested fluids, which was as follows: 160.2 for the control, 172.9 for the fluid containing 125 ppm TTPC, 185.5 for the fluid containing 250 ppm TTPC, and 188.7 for the fluid containing 375 pp, TTPC.
# [4] = Compatibility of guar-based fluid (DELTA 200) and TTPC, FIG. 5
# Text: The starting viscosity of each of the tested fluids, was as follows: 77.0 for the control, 251.9 for the fluid containing 125 ppm TTPC, 59.7 for the fluid containing 250 ppm TTPC, and 96.8 for the fluid containing 375 pp, TTPC.
# [5] = Compatibility of guar-based fluid (HYBOR G) and TTPC, FIG. 3
# Text: The starting viscosity of each of the tested fluids, was as follows: 138.1 for the control, 141.3 for the fluid containing 125 ppm TTPC, 125.7 for the fluid containing 250 ppm TTPC, and 128.8 for the fluid containing 375 pp, TTPC.
# [6] = Compatibility of CMHPG fluid (SIROCCO) and TTPC, FIG. 1
# Procedure: First, a treatment fluid containing 35 pptg (pounds per thousand gallons) carboxymethyl hydroxypropyl guar (CMHPG) fluid (SIROCCO, commercially available from Halliburton Energy Services, Inc. of Duncan, Okla.) with a pH of approximately 10.1 at 250° F. was tested and found to be compatible with TTPC up to about 250 ppm, as shown in FIG. 1. Not shown in […] is the starting viscosity of each of the tested fluids, which was as follows: 117.1 for the control, 140.1 for the fluid containing 125 ppm TTPC, 116.2 for the fluid containing 250 ppm TTPC, and 147.4 for the fluid containing 375 pp, TTPC.
smiles,measurement,setting,value
"CCCCCCCCCCCCCC[P+](CCCC)(CCCC)CCCC.[Cl-] [TTPC, tri-n-butyl tetradecyl phosphonium chloride]",TTPC concentration up to which fluid is compatible,"[1]; DELTA 140, 2 gptg tetramethylammonium chloride, 3 gptg BC-140, 140° F.",up to 375 ppm
same,starting viscosity of fluid,"[1]; DELTA 140, 125 ppm TTPC",263.7
same,starting viscosity of fluid,"[1]; DELTA 140, 250 ppm TTPC",567.3
same,starting viscosity of fluid,"[1]; DELTA 140, 375 pp, TTPC",721.6
same,TTPC concentration up to which fluid is compatible,"[2]; 2 gptg tetramethylammonium chloride, 1.1 gptg pH buffer, 1.4 gptg CL-37, 225° F.",up to 125 ppm
same,starting viscosity of fluid,[2]; 30 ppm TTPC,1182.63
same,starting viscosity of fluid,[2]; 60 ppm TTPC,1067.5
same,starting viscosity of fluid,"[2]; 125 pp, TTPC",1015.8
same,TTPC concentration up to which fluid is compatible,"[3]; 1 gptg GasPerm 1000, 4% KCl, 225° F.",up to 375 ppm
same,starting viscosity of fluid,[3]; 125 ppm TTPC,172.9
same,starting viscosity of fluid,[3]; 250 ppm TTPC,185.5
same,starting viscosity of fluid,"[3]; 375 pp, TTPC",188.7
same,TTPC concentration up to which fluid is compatible,"[4]; DELTA 200, 2 gptg Clayfix II, 2.5 gptg BC-200 UC, 204° F.",up to 375 ppm
same,starting viscosity of fluid,"[4]; DELTA 200, 125 ppm TTPC",251.9
same,starting viscosity of fluid,"[4]; DELTA 200, 250 ppm TTPC",59.7
same,starting viscosity of fluid,"[4]; DELTA 200, 375 pp, TTPC",96.8
same,TTPC concentration up to which fluid is compatible,"[5]; 1 gptg GasPerm 1000, 5 pptg sodium thiosulfate, 225° F.",up to 375 ppm
same,starting viscosity of fluid,[5]; 125 ppm TTPC,141.3
same,starting viscosity of fluid,[5]; 250 ppm TTPC,125.7
same,starting viscosity of fluid,"[5]; 375 pp, TTPC",128.8
same,starting viscosity of fluid,[6]; 125 ppm TTPC,140.1
same,starting viscosity of fluid,[6]; 250 ppm TTPC,116.2
same,starting viscosity of fluid,"[6]; 375 pp, TTPC",147.4
same,TTPC concentration up to which fluid is compatible,"[6]; pH approximately 10.1, 250° F.",up to 250 ppm
